Patent publication US7288542B2, “Non-nucleoside reverse transcriptase inhibitors” (Roche Palo Alto LLC, priority 2004, dated 2007)
Counter-ions that a name gives are not always drawn.

Tests used:
[1] = Oral pharmacokinetics in rats: plasma concentration of active nnRTI after gavage of prodrug or parent (Example 8); type: in vivo; conditions: parent compound dosed p.o. at 50 mg/kg; for Cmax: rat, plasma, po, read-out: Cmax (peak concentration of active nnRTI) (converted)
Description: dose equivalent to (0.127 mmol) was administered orally by gavage. A blood sample (0.3 mL) was collected from the […] at 0.5, 1, 2, 3, 4, 6 and 8 hours after via the jugular cannula. A sample of at least 0.3 mL of blood was withdrawn from the untreated animals 3 h after dosing. After 24 h from dosing, as much blood as possible was collected from all treated and control animals. Potassium oxalate/NaF was added to the samples which were stored on ice during sampling procedure. The samples were spun in a refrigerated centrifuge at […] as soon as possible and the plasma samples were stored −20° C. immediately after centrifugation amd later transferred to a −80° C. freezer until analysis. The concentration of test compound was determined by hplc.

Row | Compound | melting point | AUC (total amount of active nnRTI absorbed) [1] | Cmax [1]
1 | Cc1cc(Cc2ccc(Cl)c(Oc3cc(C#N)cc(C(F)F)c3)c2F)nn(CO)c1=O [Compound I-27] | 113.9 to 117.3 °C |  | 
2 | Cc1cc(Cc2ccc(Cl)c(Oc3cc(C#N)cc(C(F)F)c3)c2F)nn(COC(=O)CCC(=O)O)c1=O [Compound I-28, Succinic acid mono-{3-[4-chloro-3-(3-cyano-5-difluoromethyl-phenoxy)-2-fluoro-benzyl]-5-methyl-6-oxo-6H-pyridazin-1-ylmethyl}ester] | 154.3 to 156.9 °C |  | 
3 | Cc1cc(Cc2ccc(Cl)c(Oc3cc(C#N)cc(C#N)c3)c2F)n[nH]c1=O [Compound 10, 5-[6-chloro-2-fluoro-3-(5-methyl-6-oxo-1,6-dihydro-pyridazin-3-ylmethyl)-phenoxy]-isophthalonitrile] |  | 8.1 µg·h/mL | 600 ng/mL
4 | Cc1cc(Cc2ccc(Cl)c(Oc3cc(C#N)cc(C#N)c3)c2F)nn(COP(=O)(O)O)c1=O (as salt: sodium) (hydrate or solvate) [Compound I-23, Phosphoric acid mono-{3-[4-chloro-3-(3,5-dicyano-phenoxy)-2-fluoro-benzyl]-5-methyl-6-oxo-6H-pyridazin-1-ylmethyl}ester disodium salt] | 193.7 to 197.2 °C |  | 
5 | Cc1cc(Cc2ccc(Cl)c(Oc3cc(Cl)cc(C#N)c3)c2F)n[nH]c1=O [Compound 11, 3-chloro-5-[6-chloro-2-fluoro-3-(5-methyl-6-oxo-1,6-dihydro-pyridazin-3-ylmethyl)-phenoxy]-benzonitrile] |  | 30.0 µg·h/mL | 2300 ng/mL
6 | Cc1cc(Cc2ccc(Cl)c(Oc3cc(C#N)cc(C#N)c3)c2F)nn(COC(=O)CCC(=O)O)c1=O [Compound I-8, Succinic acid mono-{3-[4-chloro-3-(3,5-dicyano-phenoxy)-2-fluoro-benzyl]-5-methyl-6-oxo-6H-pyridazin-1-ylmethyl}ester] | 167 to 171.5 °C |  | 
7 | N#Cc1cc(F)cc(Oc2c(Cl)ccc(Cc3ccc(=O)n(CO)n3)c2F)c1 [Compound I-29] | 100.5 to 103.8 °C |  | 
8 | Cc1cc(Cc2ccc(Cl)c(Oc3cc(C#N)cc(C#N)c3)c2F)nn(COC(=O)OCCN(C)C)c1=O (as salt: HCl) [Compound I-18, Carbonic acid 3-[4-chloro-3-(3,5-dicyano-phenoxy)-2-fluoro-benzyl]-5-methyl-6-oxo-6H-pyridazin-1-ylmethyl ester 2-dimethylamino-ethyl ester] | 75 to 90 °C |  | 
9 | Cc1cc(Cc2ccc(Cl)c(Oc3cc(C#N)cc(C#N)c3)c2F)nn(CO)c1=O [Compound I-1, 5-[6-Chloro-2-fluoro-3-(1-hydroxymethyl-5-methyl-6-oxo-1,6-dihydro-pyridazin-3-ylmethyl)-phenoxyl]-isophthalonitrile] | 172 to 179 °C |  | 
10 | Cc1cc(Cc2ccc(Cl)c(Oc3cc(C#N)cc(C#N)c3)c2F)nn(COC(=O)[C@@H](N)C(C)C)c1=O (as salt: hydrochloride) [Compound I-5, (S)-1-{3-[4-Chloro-3-(3,5-dicyano-phenoxy)-2-fluoro-benzyl]-5-methyl-6-oxo-6H-pyridazin-1-ylmethoxycarbonyl}-2-methyl-propyl-ammonium; chloride] | 176.7 to 178.3 °C |  | 
11 | N#Cc1cc(F)cc(Oc2c(Cl)ccc(Cc3ccc(=O)n(COC(=O)CCC(=O)O)n3)c2F)c1 [Compound I-30, Succinic acid mono-{3-[4-chloro-3-(3-cyano-5-fluoro-phenoxy)-2-fluoro-benzyl]-6-oxo-6H-pyridazin-1-ylmethyl}ester] | 133.9 to 137 °C |  | 
